# Tests used:
# [1] = test system: C57BL/6 mice with pulmonary arterial hypertension caused by hypoxia; experiment: Right ventricular hypertrophy (RVH) index RV/(LV+S) in hypoxia PAH mice; assay type: in vivo, mouse; conditions: 7 days, model group 32.62±1.41, normoxia 25.99±1.17, mean±standard error
# Procedure: (§1) Healthy and lively C57BL/6 mice at the age of 4-6 weeks, with glossy hair colors, and body weights of (25.15±2.15) g (Laboratory Animal Center of Academy of Military Medical Sciences, SPF grade). The mice were divided into four groups: • Group 1 (wild-type normoxia, used as a control group): 10 female mice and 10 male mice under normoxia conditions; • Group 2 (wild-type hypoxia, used as a control group): 10 female mice and 10 male mice under hypoxia conditions; • Group 3 (10 mg/kg, used as an experimental group): 10 female mice and 10 male mice were treated with 10 mg/kg by gavage under hypoxia conditions; • Group 4 (50 mg/kg, used as an experimental group): 10 female mice and 10 male mice were treated with 50 mg/kg by gavage under hypoxia conditions.
# The mice of groups 2-4 were placed in an animal feeding chamber under normal pressure and hypoxia, the oxygen concentration in the chamber was maintained at 9%-11%, and the temperature in the chamber was maintained at 22-26° C. The mice of group 1 inhaled normal atmosphere air, and the other conditions were the same as those for mice of groups 2-4. […]
# [2] = test system: C57BL/6 mice with pulmonary arterial hypertension caused by hypoxia; experiment: Pathological changes of pulmonary arterioles (HE and elastic fiber staining, vascular remodeling rate) in hypoxia PAH mice; assay type: in vivo, mouse
# Procedure: as §1
# The mice of groups 2-4 were placed in an animal feeding chamber under normal pressure and hypoxia, the oxygen concentration in the chamber was maintained at 9%-11%, and the temperature in the chamber was maintained at 22-26° C. The mice of group 1 inhaled normal atmosphere air, and the other conditions were the same as those for mice of groups 2-4.
# In order to explore whether CBD has a therapeutic effect on pulmonary arterial hypertension or not, the inventor first treated mice for 14 days in a continuous hypoxia environment to establish a model of pulmonary arterial hypertension (the groups 2-4), and then administration was started from day 15 to day 21 through gavage once a day, the mice were treated every day for 7 days (the group 3-4), and detection was performed on day 21.
# Sample: paraffin sections of mouse lung tissue.
# Objective: observing the pathology of lung tissues to detect whether there is a vascular wall thickening phenomenon or not.
# IL-6 = experiment: LPS-induced primary alveolar macrophages, IL-6 expression by fluorescence quantitative PCR; assay type: cell-based, mouse; conditions: 0.5, 1, 5 μM CBD pre-treatment 0.5 h, then 100 ng/mL LPS, 5 h; dose-dependent
# Text: (§2) Primary alveolar macrophages were isolated according to the method by Yang et al. (Yang, H. M., Ma, J. Y., Castranova, V., and Ma, J. K. (1997). Effects of diesel exhaust particles on the release of interleukin-1 and tumor necrosis factor-alpha from rat alveolar macrophages. Experimental lung research 23, 269-284): two-month-old mice were taken and injected intraperitoneally with pentobarbital to be anesthetized. The mice were fixed at a supine position, and disinfected at the neck, and the neck skin was cut open to strip gland muscles and expose the trachea. A small opening was cut in an upper part of the trachea without cutting off. A small white pipette tip was inserted onto a 1 ml pipette to pipette 1 ml PBS at 4° C. (free of Ca^2+, free of Mg^2+, […]) [50 ml PBS+0.00876 g EDTA] into the lung from the opening, and then pipetted out from the opening after blowing in. Then fresh PBS was taken and pipetted into and out from the opening repeatedly for 3-4 times. The collected alveolar irrigation solution was centrifuged at 200×g for 5 minutes, and the supernatant was discarded. The cells were washed once with a serum-free RPMI-1640 culture medium and centrifuged at 200×g for 5 minutes. The cells were resuspended by adding a serum-containing RPMI-1640 and then inoculated. The cells were subjected to adherence for 2 h, and then washed for three times with PBS. […]
# MgI2 = experiment: LPS-induced primary alveolar macrophages, MgI2 expression by fluorescence quantitative PCR; assay type: cell-based, mouse; conditions: 0.5, 1, 5 μM CBD pre-treatment 0.5 h, then 100 ng/mL LPS, 5 h
# Text: as §2
# TNF-α = experiment: LPS-induced primary alveolar macrophages, TNF-α expression by fluorescence quantitative PCR; assay type: cell-based, mouse; conditions: 0.5, 1, 5 μM CBD pre-treatment 0.5 h, then 100 ng/mL LPS, 5 h; dose-dependent
# Text: as §2
# [3] = test system: C57BL/6 mice with pulmonary arterial hypertension caused by hypoxia; experiment: Right ventricular systolic pressure (RVSP) in mice with pulmonary arterial hypertension caused by hypoxia; assay type: in vivo, mouse; conditions: day 15 to 21 of continuous hypoxia, detection on day 21, hypoxia model control 25.55±2.29, normoxia 17.54±1.48, mean±standard error
# Procedure: as §1, with “conditions. […]” for “conditions.”
# On day 21, the mice were anesthetized by intraperitoneal injection of sodium pentobarbital (35 mg/kg), and the right ventricular systolic pressure was measured by using a catheter matched with a physiological instrument with reference to the right-heart catheterization reported by Song et al. (Song, Y., Jones, J. E., Beppu, H., Keaney, J. F., Jr., Loscalzo, J., and Zhang, Y. Y. (2005). Increased susceptibility to pulmonary hypertension in heterozygous BMPR2-mutant mice. Circulation 112, 553-562). […] After the catheter entered the right ventricle, RVSP was determined and recorded.
# [4] = after CBD treatment (10 and 50 mg/kg by gavage) versus hypoxia model group
# [5] = both dose groups (10 and 50 mg/kg)
structure (smiles),measurement,setting,value
"C=C(C)[C@@H]1CCC(C)=C[C@H]1c1c(O)cc(CCCCC)cc1O [CBD, Cannabidiol]",right ventricular hypertrophy index (right heart index),[1]; 10 mg/kg by gavage,30.18±1.01%
same,right ventricular hypertrophy index (right heart index),[1]; 50 mg/kg by gavage,29.90±1.19%
same,pulmonary arteriole remodeling,[2]; [4],significantly reduced
same,vascular remodeling rate,[2]; [4],significantly reduced
same,arterial medial wall thickness ratio,[2]; [5],reduction
same,vascular wall medial cross-sectional area ratio,[2]; [5],reduction
same,expression of LPS-induced IL-6,IL-6,significantly inhibit
same,"expression of MgI2, a gene that inhibited inflammation",MgI2,promote
same,expression of LPS-induced TNF-α,TNF-α,significantly inhibit
same,mean right ventricular systolic pressure,[3]; 10 mg/kg by gavage once a day,16.90±2.31 mmHg
same,mean right ventricular systolic pressure,[3]; 50 mg/kg by gavage once a day,17.92±2.37 mmHg
